Measurements: PubChem BioAssay AID248 (DTP/NCI, 2004)
Several values for one entry are separate records, joined by “and”; a condition that tells them apart may be missing. Equal values may be shown once. Inconclusive results and toxic doses are left out. Rule as the data show it: active = T/C of 150% or more; inactive = T/C below 125%.

Test system: L1210 leukemia ip in BDF1 mice, survival T/C
Assay: NCI In Vivo Anticancer Drug Screen. Data for tumor model L1210 Leukemia (intraperitoneal) in B6D2F1 (BDF1) mice
Settings: higher = longer survival
Summary of the method: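 Tumor cells were implanted, animals were treated, and survival was followed. The result divides the treated measurement by the vehicle-control measurement.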

[1] = endpoint: mean survival time, dose: 5.0 mg/kg/injection, schedule: Q01DX001 (ip), vehicle: saline
[2] = endpoint: mean survival time, dose: 100.0 mg/kg/injection, schedule: Q01DX009 (ip), vehicle: saline with Tween-80
[3] = endpoint: mean survival time, dose: 50.0 mg/kg/injection, schedule: Q01DX009 (ip), vehicle: saline
[4] = endpoint: mean survival time, dose: 100.0 mg/kg/injection, schedule: Q04DX003 (ip), vehicle: saline with Tween-80
[5] = endpoint: mean survival time, dose: 200.0 mg/kg/injection, schedule: Q01DX009 (ip), vehicle: saline with Tween-80
[6] = endpoint: mean survival time, dose: 200.0 mg/kg/injection, schedule: Q04DX003 (ip), vehicle: saline with Tween-80
[7] = endpoint: mean survival time, dose: 400.0 mg/kg/injection, schedule: Q01DX009 (ip), vehicle: saline with Tween-80
[8] = endpoint: mean survival time, dose: 400.0 mg/kg/injection, schedule: Q04DX003 (ip), vehicle: saline with Tween-80
[9] = endpoint: mean survival time, dose: 200.0 mg/kg/injection, schedule: Q04DX003 (ip), vehicle: saline sonified
[10] = endpoint: mean survival time, dose: 400.0 mg/kg/injection, schedule: Q04DX003 (ip), vehicle: saline sonified
[11] = endpoint: mean survival time, dose: 100.0 mg/kg/injection, schedule: Q01DX001 (ip), vehicle: Klucel (hydroxypropylcellulose) (HPC)
[12] = endpoint: mean survival time, dose: 200.0 mg/kg/injection, schedule: Q01DX001 (ip), vehicle: Klucel (hydroxypropylcellulose) (HPC)
[13] = endpoint: mean survival time, dose: 400.0 mg/kg/injection, schedule: Q01DX001 (ip), vehicle: Klucel (hydroxypropylcellulose) (HPC)
[14] = endpoint: mean survival time, dose: 100.0 mg/kg/injection, schedule: Q04DX003 (ip), vehicle: saline sonified

Measured: T/C

CC1OC(OC2CC(O)C3(CO)C4C(O)CC5(C)C(C6=CC(=O)OC6)CCC5(O)C4CCC3(O)C2)C(O)C(O)C1O (stereo not drawn)
inactive: endpoint: mean survival time, dose: 0.5 mg/kg/injection, schedule: Q01DX009 (ip), vehicle: saline 100 % of control | endpoint: mean survival time, dose: 1.0 mg/kg/injection, schedule: Q01DX009 (ip), vehicle: saline 121 % of control | endpoint: mean survival time, dose: 1.25 mg/kg/injection, schedule: Q01DX001 (ip), vehicle: saline 100 % of control | endpoint: mean survival time, dose: 2.0 mg/kg/injection, schedule: Q01DX009 (ip), vehicle: saline 113 % of control | endpoint: mean survival time, dose: 2.5 mg/kg/injection, schedule: Q01DX001 (ip), vehicle: saline 104 % of control | endpoint: mean survival time, dose: 4.0 mg/kg/injection, schedule: Q01DX009 (ip), vehicle: saline 106 % of control | [1] 101 % of control | endpoint: mean survival time, dose: 6.25 mg/kg/injection, schedule: Q01DX001 (ip), vehicle: saline 105 % of control | endpoint: mean survival time, dose: 12.5 mg/kg/injection, schedule: Q01DX001 (ip), vehicle: saline 106 % of control | endpoint: median survival time, dose: 1.0 mg/kg/injection, schedule: Q01DX005 (ip), vehicle: water 105 % of control | endpoint: median survival time, dose: 2.0 mg/kg/injection, schedule: Q01DX005 (ip), vehicle: water 104 % of control | endpoint: median survival time, dose: 4.0 mg/kg/injection, schedule: Q01DX005 (ip), vehicle: water 109 % of control

CCN(CC)CCCCCCn1c2ccccc2c2c(C)c3cnccc3c(C)c21
inactive: endpoint: mean survival time, dose: 25.0 mg/kg/injection, schedule: Q01DX009 (ip), vehicle: saline with Tween-80 108 % of control | endpoint: mean survival time, dose: 50.0 mg/kg/injection, schedule: Q01DX009 (ip), vehicle: saline with Tween-80 102 % of control | [2] 105 % of control

CCNCCCOCC
inactive: [3] 91 % of control | endpoint: mean survival time, dose: 100.0 mg/kg/injection, schedule: Q04DX003 (ip), vehicle: saline 103 % of control | endpoint: mean survival time, dose: 200.0 mg/kg/injection, schedule: Q04DX003 (ip), vehicle: saline 95 % of control

CC1CCCC[N-]1.CC1CCCC[N-]1.N#C[S-].N#C[S-].[Cu] (stereo not drawn)
inactive: [1] 94 % of control | endpoint: mean survival time, dose: 10.0 mg/kg/injection, schedule: Q01DX001 (ip), vehicle: saline 86 % of control | endpoint: mean survival time, dose: 20.0 mg/kg/injection, schedule: Q01DX001 (ip), vehicle: saline 91 % of control | endpoint: mean survival time, dose: 40.0 mg/kg/injection, schedule: Q01DX001 (ip), vehicle: saline 100 % of control

Cc1c(Cl)cccc1NC(=O)OC/C=C/c1ccccc1
inactive: endpoint: mean survival time, dose: 100.0 mg/kg/injection, schedule: Q01DX001 (ip), vehicle: saline with Tween-80 93 % of control | [2] 101 % of control and 105 % of control | endpoint: mean survival time, dose: 100.0 mg/kg/injection, schedule: Q04DX002 (ip), vehicle: saline with Tween-80 101 % of control and 114 % of control | [4] 91 % of control | endpoint: mean survival time, dose: 200.0 mg/kg/injection, schedule: Q01DX001 (ip), vehicle: saline with Tween-80 93 % of control | [5] 94 % of control and 101 % of control | endpoint: mean survival time, dose: 200.0 mg/kg/injection, schedule: Q04DX002 (ip), vehicle: saline with Tween-80 96 % of control and 106 % of control | [6] 93 % of control | endpoint: mean survival time, dose: 400.0 mg/kg/injection, schedule: Q01DX001 (ip), vehicle: saline with Tween-80 88 % of control | [7] 94 % of control and 101 % of control | endpoint: mean survival time, dose: 400.0 mg/kg/injection, schedule: Q04DX002 (ip), vehicle: saline with Tween-80 93 % of control and 97 % of control | [8] 98 % of control

O=C(O)c1ccc(OCCOc2ccccc2)cc1
inactive: endpoint: mean survival time, dose: 100.0 mg/kg/injection, schedule: Q01DX009 (ip), vehicle: saline sonified 90 % of control | endpoint: mean survival time, dose: 200.0 mg/kg/injection, schedule: Q01DX009 (ip), vehicle: saline sonified 95 % of control | [9] 100 % of control | endpoint: mean survival time, dose: 400.0 mg/kg/injection, schedule: Q01DX009 (ip), vehicle: saline sonified 93 % of control | [10] 108 % of control

Cc1ccc(C(=O)CCCCCC(=O)c2ccc(C)cc2O)c(O)c1
inactive: [11] 98 % of control | [12] 98 % of control | [13] 95 % of control

ClC(Cl)c1nc2ccccc2[nH]1
inactive: endpoint: mean survival time, dose: 25.0 mg/kg/injection, schedule: Q01DX001 (ip), vehicle: Klucel (hydroxypropylcellulose) (HPC) 94 % of control | endpoint: mean survival time, dose: 50.0 mg/kg/injection, schedule: Q04DX003 (ip), vehicle: saline 97 % of control

NC1C(O)C(N)C(O)C(O)C1O (stereo not drawn)
inactive: [14] 97 % of control | [9] 97 % of control | [10] 95 % of control

Cc1ccc2cccnc2c1N (tested in a mixture with another compound)
inactive: endpoint: mean survival time, dose: 1.56 mg/kg/injection, schedule: Q01DX009 (ip), vehicle: DMSO 101 % of control | endpoint: mean survival time, dose: 3.12 mg/kg/injection, schedule: Q01DX009 (ip), vehicle: DMSO 97 % of control | endpoint: mean survival time, dose: 6.25 mg/kg/injection, schedule: Q01DX009 (ip), vehicle: DMSO 95 % of control and 97 % of control | endpoint: mean survival time, dose: 12.5 mg/kg/injection, schedule: Q01DX009 (ip), vehicle: DMSO 100 % of control | endpoint: mean survival time, dose: 25.0 mg/kg/injection, schedule: Q01DX009 (ip), vehicle: DMSO 94 % of control and 88 % of control | endpoint: mean survival time, dose: 25.0 mg/kg/injection, schedule: Q04DX003 (ip), vehicle: DMSO 107 % of control | endpoint: mean survival time, dose: 50.0 mg/kg/injection, schedule: Q04DX003 (ip), vehicle: DMSO 86 % of control | endpoint: mean survival time, dose: 100.0 mg/kg/injection, schedule: Q04DX003 (ip), vehicle: DMSO 98 % of control

O=C1NC2(C(=O)O1)C1CC3CC(C1)CC2C3 (stereo not drawn)
inactive: endpoint: mean survival time, dose: 12.5 mg/kg/injection, schedule: Q01DX009 (ip), vehicle: saline 108 % of control | endpoint: mean survival time, dose: 25.0 mg/kg/injection, schedule: Q01DX009 (ip), vehicle: saline 107 % of control | [3] 105 % of control | endpoint: mean survival time, dose: 100.0 mg/kg/injection, schedule: Q04DX003 (ip), vehicle: alcohol 100 % of control | endpoint: mean survival time, dose: 200.0 mg/kg/injection, schedule: Q04DX003 (ip), vehicle: alcohol 90 % of control | endpoint: mean survival time, dose: 400.0 mg/kg/injection, schedule: Q04DX003 (ip), vehicle: alcohol 100 % of control

COC(=O)/C(C#N)=C/c1c[nH]c2ccccc12
inactive: [2] 101 % of control | [4] 101 % of control | [5] 95 % of control | [6] 93 % of control | [7] 100 % of control | [8] 98 % of control

O=C(Nc1ccccc1)C(=O)c1ccccc1
inactive: [11] 98 % of control | [12] 93 % of control | [13] 106 % of control

CCCCCCCCCCC1CCC2C(C1)CC1C3CCCCC3CC21 (stereo not drawn)
inactive: endpoint: mean survival time, dose: 100.0 mg/kg/injection, schedule: Q01DX001 (ip), vehicle: saline 97 % of control | endpoint: mean survival time, dose: 200.0 mg/kg/injection, schedule: Q01DX001 (ip), vehicle: saline 97 % of control | endpoint: mean survival time, dose: 400.0 mg/kg/injection, schedule: Q01DX001 (ip), vehicle: saline 96 % of control

O=C(Nc1cc(C(F)(F)F)cc(C(F)(F)F)c1)Nc1c(Oc2ccc(Cl)cc2Cl)ccc(Cl)c1S(=O)(=O)O
inactive: [14] 100 % of control | [9] 100 % of control

CC1=CCC2C(C)(C)CCCC2(C)C1CO (stereo not drawn)
inactive: endpoint: mean survival time, dose: 75.0 mg/kg/injection, schedule: Q01DX001 (ip), vehicle: saline 98 % of control | endpoint: mean survival time, dose: 150.0 mg/kg/injection, schedule: Q01DX001 (ip), vehicle: saline 100 % of control | endpoint: mean survival time, dose: 300.0 mg/kg/injection, schedule: Q01DX001 (ip), vehicle: saline 95 % of control
